Results published in PMC10999543, “Identification of kinase modulators as host-directed therapeutics against intracellular methicillin-resistant Staphylococcus aureus” (Frontiers in Cellular and Infection Microbiology, 2024).
Read-outs that look alike come from different tables or passages of the source.

Tests used:
intracellular MRSA = format: cell-based, Staphylococcus aureus; details: for %GFP+ rep 1 / z-scoreMRSA+ rep 1: replicate 1; for %GFP+ rep 2 / z-scoreMRSA+ rep 2: replicate 2; for %GFP+ rep 3 / z-scoreMRSA+ rep 3: replicate 3; for z-scoreMRSA+ mean: mean of 3 replicates; as to %GFP+ rep 1: test concentration or dose not given here; as to %GFP+ rep 2: test concentration or dose not given here; as to %GFP+ rep 3: test concentration or dose not given here; as to effect: test concentration or dose not given here; as to z-scoreMRSA+ mean: test concentration or dose not given here; as to z-scoreMRSA+ rep 1: test concentration or dose not given here; as to z-scoreMRSA+ rep 2: test concentration or dose not given here; as to z-scoreMRSA+ rep 3: test concentration or dose not given here
In short: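 Values are z-scores: GFP-positive HeLa percentage and event count per well against plate statistics, minus the mean DMSO z-score. Wells deviating two-fold from controls were left out of plate means. Infection was at a mean MOI of 6.8, with an overnight compound exposure.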

HeLa cells = experiment: Compound screen by flow cytometry: HeLa cell count as surrogate readout of cell viability (z-scoreHeLa); format: cell-based, human; details: for cell count rep 1 / z-scoreHeLa rep 1: replicate 1; for cell count rep 2 / z-scoreHeLa rep 2: replicate 2; for cell count rep 3 / z-scoreHeLa rep 3: replicate 3; for z-scoreHeLa mean: mean of 3 replicates; as to all read-outs here: test concentration or dose not given here
In short: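 The viability surrogate was the count of fixed HeLa cells by flow cytometry, converted to z-scores against DMSO controls with values deviating two-fold excluded. Before counting, cells had been infected with MRSA for 1 h and cleared of extracellular bacteria with gentamicin. They were then exposed overnight to kinase inhibitors in triplicate.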

[1] = PKIS compound screen raw data, MRSA-infected HeLa cells
[2] = Yes/No: effect without cell death
[3] = compound screen, MRSA-infected HeLa cells
[4] = PKIS compound screen raw data, HeLa cell count
[5] = compound screen, HeLa cell count
[6] = PKIS compound screen, Yes/No call
[7] = PKIS compound screen, Yes/No call (effect without cell death)
[8] = PKIS compounds raw data, MRSA-infected HeLa cells
[9] = PKIS compounds raw data, HeLa cell count
[10] = PKIS compound screen, MRSA-infected HeLa cells
[11] = PKIS compound screen, Yes/No call on z-scoreMRSA+
[12] = PKIS compound screen, HeLa cell count
[13] = PKIS compound screen, Yes/No call on z-scoreHeLa

Row | Structure (SMILES) | %GFP+ rep 1 (intracellular MRSA; [1]) | %GFP+ rep 2 (intracellular MRSA; [1]) | %GFP+ rep 3 (intracellular MRSA; [1]) | effect (intracellular MRSA; Yes/No call from z-scoreMRSA+) | hit (intracellular MRSA; [2]) | z-scoreMRSA+ mean (intracellular MRSA; [3]) | cell count rep 1 (HeLa cells; [4]) | cell count rep 2 (HeLa cells; [4]) | cell count rep 3 (HeLa cells; [4]) | hit (intracellular MRSA; [7]) | z-scoreMRSA+ mean (intracellular MRSA; [10]) | z-scoreMRSA+ rep 1 (intracellular MRSA; [10]) | z-scoreMRSA+ rep 2 (intracellular MRSA; [10]) | z-scoreMRSA+ rep 3 (intracellular MRSA; [10]) | effect (intracellular MRSA; [11]) | z-scoreHeLa mean (HeLa cells; [12]) | z-scoreHeLa rep 1 (HeLa cells; [12]) | z-scoreHeLa rep 2 (HeLa cells; [12]) | z-scoreHeLa rep 3 (HeLa cells; [12]) | cell death (HeLa cells; [13]) | further results
1 | CN(C)CCOc1ccc(-c2cc(-c3ccc(Cl)c(O)c3)c(-c3ccncc3)[nH]2)cc1.Cl.Cl [SB-684387-B] | 13.0% | 10.9% | 11.1% | Yes | Yes | -3.01 | 7005 | 6368 | 7752 |  |  |  |  |  |  |  |  |  |  |  | z-scoreMRSA+ rep 1 (intracellular MRSA; [3]): -2.86; z-scoreMRSA+ rep 2 (intracellular MRSA; [3]): -2.84; z-scoreMRSA+ rep 3 (intracellular MRSA; [3]): -3.32; cell death (HeLa cells; Yes/No call from z-scoreHeLa): No; z-scoreHeLa mean (HeLa cells; [5]): 1.70; z-scoreHeLa rep 1 (HeLa cells; [5]): 1.91; z-scoreHeLa rep 2 (HeLa cells; [5]): 1.59; z-scoreHeLa rep 3 (HeLa cells; [5]): 1.59
2 | Cc1ccc(S(=O)(=O)Nc2ccc(Nc3nccc(Nc4cccc5[nH]ncc45)n3)cc2)cc1 [GSK581271A] |  |  |  |  |  |  |  |  |  | No |  |  |  |  |  |  |  |  |  |  | effect (intracellular MRSA; [6]): No; z-scoreMRSA+ mean (intracellular MRSA; PKIS compound screen): -0.30; z-scoreMRSA+ rep 1 (intracellular MRSA; PKIS compound screen): -0.62; z-scoreMRSA+ rep 2 (intracellular MRSA; PKIS compound screen): 0.0118; z-scoreMRSA+ rep 3 (intracellular MRSA; PKIS compound screen): -0.29; %GFP+ rep 1 (intracellular MRSA; [8]): 23.9%; %GFP+ rep 2 (intracellular MRSA; [8]): 26.1%; %GFP+ rep 3 (intracellular MRSA; [8]): 25.7%; cell death (HeLa cells; [6]): No; z-scoreHeLa mean (HeLa cells; PKIS compound screen): 0.40; z-scoreHeLa rep 1 (HeLa cells; PKIS compound screen): 0.33; z-scoreHeLa rep 2 (HeLa cells; PKIS compound screen): 0.35; z-scoreHeLa rep 3 (HeLa cells; PKIS compound screen): 0.51; cell count rep 1 (HeLa cells; [9]): 6603; cell count rep 2 (HeLa cells; [9]): 6528; cell count rep 3 (HeLa cells; [9]): 6401
3 | Cc1cn2c(=O)cc(N3CCOCC3)nc2n1Cc1cccc(Cl)c1Cl [GSK2334006A] | 10.9% | 13.1% | 15.5% |  |  |  | 38408 | 33023 | 28416 | No | -1.80 | -2.11 | -1.72 | -1.57 | No | 1.52 | 1.39 | 1.33 | 1.85 | No | effect (intracellular MRSA; [6]): No; z-scoreMRSA+ mean (intracellular MRSA; PKIS compound screen): -0.59; z-scoreMRSA+ rep 1 (intracellular MRSA; PKIS compound screen): -0.75; z-scoreMRSA+ rep 2 (intracellular MRSA; PKIS compound screen): -1.01; z-scoreMRSA+ rep 3 (intracellular MRSA; PKIS compound screen): -0.0127; %GFP+ rep 1 (intracellular MRSA; [8]): 23.2%; %GFP+ rep 2 (intracellular MRSA; [8]): 20.8%; %GFP+ rep 3 (intracellular MRSA; [8]): 27.2%; cell death (HeLa cells; [6]): No; z-scoreHeLa mean (HeLa cells; PKIS compound screen): -0.32; z-scoreHeLa rep 1 (HeLa cells; PKIS compound screen): -0.18; z-scoreHeLa rep 2 (HeLa cells; PKIS compound screen): -0.55; z-scoreHeLa rep 3 (HeLa cells; PKIS compound screen): -0.25; cell count rep 1 (HeLa cells; [9]): 5750; cell count rep 2 (HeLa cells; [9]): 5179; cell count rep 3 (HeLa cells; [9]): 5208
4 | Fc1ccc(-c2ncn(C3CCNCC3)c2-c2ccnc(Oc3ccc(F)c(F)c3)n2)cc1 [SB-253228] | 13.5% | 14.9% | 15.9% |  |  |  | 9973 | 28239 | 36229 | No | -1.22 | -1.38 | -1.09 | -1.18 | No | -1.15 | -1.54 | -1.22 | -0.68 | No | 
5 | O=c1cc(N2CCOCC2)nc2n(Cc3cccc(Cl)c3Cl)c(C3CC3)nn12 [GSK2358994A] | 12.1% | 13.2% | 14.9% |  |  |  | 42747 | 35107 | 37884 | No | -1.74 | -1.78 | -1.70 | -1.73 | No | 2.50 | 2.13 | 1.69 | 3.69 | No | 
6 | COc1ccc(CNC(=O)NC2CCN(c3ccnc(Nc4cc(OC)c(OC)c(OC)c4)n3)C2)cc1 (centres unmarked) [GSK1379748A] | 25.5% | 23.4% | 23.0% | No | No | 0.16 | 5560 | 4556 | 5664 |  |  |  |  |  |  |  |  |  |  |  | z-scoreMRSA+ rep 1 (intracellular MRSA; [3]): 0.05; z-scoreMRSA+ rep 2 (intracellular MRSA; [3]): 0.19; z-scoreMRSA+ rep 3 (intracellular MRSA; [3]): 0.24; cell death (HeLa cells; Yes/No call from z-scoreHeLa): No; z-scoreHeLa mean (HeLa cells; [5]): 0.45; z-scoreHeLa rep 1 (HeLa cells; [5]): 0.87; z-scoreHeLa rep 2 (HeLa cells; [5]): 0.20; z-scoreHeLa rep 3 (HeLa cells; [5]): 0.27
7 | CCn1cc(-c2ccnc3[nH]ccc23)c(-c2cccc(NC(=O)Nc3ccc(OCc4ccccc4)cc3)c2)n1 [GSK718429A] |  |  |  | No | No | -0.38 |  |  |  |  |  |  |  |  |  |  |  |  |  |  | %GFP+ rep 1 (intracellular MRSA; [8]): 12.6%; %GFP+ rep 2 (intracellular MRSA; [8]): 13.0%; %GFP+ rep 3 (intracellular MRSA; [8]): 13.2%; z-scoreMRSA+ rep 1 (intracellular MRSA; [3]): -0.18; z-scoreMRSA+ rep 2 (intracellular MRSA; [3]): -0.17; z-scoreMRSA+ rep 3 (intracellular MRSA; [3]): -0.79; cell count rep 1 (HeLa cells; [9]): 2721; cell count rep 2 (HeLa cells; [9]): 2140; cell count rep 3 (HeLa cells; [9]): 4945; cell death (HeLa cells; Yes/No call from z-scoreHeLa): No; z-scoreHeLa mean (HeLa cells; [5]): -1.48; z-scoreHeLa rep 1 (HeLa cells; [5]): -1.86; z-scoreHeLa rep 2 (HeLa cells; [5]): -1.61; z-scoreHeLa rep 3 (HeLa cells; [5]): -0.96
8 | Fc1cc(Cl)ccc1Nc1ccnc2cc(-c3ccc(CN4CCSCC4)o3)ccc12 [GW560106X] | 16.0% | 19.0% | 19.0% |  |  |  | 31348 | 29129 | 34674 | No | -0.23 | -0.59 | 0.14 | -0.24 | No | -0.095 | 1.70 | -1.06 | -0.93 | No | 
